Data: US12508275B2, “Neomycin based compounds, and pharmaceutical use thereof” (UNIVERSITÉ COTE D'AZUR, priority 2019, dated 2025)

Columns and labels:
[1] = tested on: Patient derived GSC (GB5); test: Effect of compound treatment on GSC phenotype (adhesion, morphology), GB5; format: cell-based, human; conditions: GB5, 10 uM, three days
Source text: FIG. 1: phase contrast images of GB5 morphology untreated (CTL DMSO) or treated with the indicated compound (“Cpd” denotes compound) at the indicated concentration. Control cells grow as non-adherent spheroids composed of numerous GSC. When differentiated the cells become adherent and spread on the culture dish.
B—Cell culture: Patient-derived cells GB5 were isolated from surgical resection of human primary GBM provided by the department of neurosurgery of the University Hospital of Nice. TG6 (patient-derived cell from primary GBM) and HNNSC25 (Human Normal Neural Stem Cells) have been provided by Dr Hervé Chneiweiss, University of Pierre and Marie Curie, Paris. The resulting primary cultures (GB5, TG6, HNNSC25) were grown in NS34+ medium containing EGF and bFGF (DMEM-F12 1/1 ratio, 10 mM glutamine, 10 mM Hepes, 0.025% Sodium bicarbonate, N2, G5, and B27).
Patient derived GSC (GB5) were treated with growing concentration of Compounds 9a-b and 18a-b (10 to 100 uM) during three days). […] Similar results have been obtained with TG6.

[2] = tested on: normal neural stem cells (NNSC); test: XTT toxicity assay on normal neural stem cells; format: cell-based
Protocol: (§1) FIG. 4: Determination of compound toxicity on GSC and normal human cells. (A) GB5 were incubated with growing concentration of Compounds 9a-b and 18a. (B) human normal neural stem cell (NNSC), human normal kidney cells (NHEK), human normal hepatocytes (HEPRG) and (C) human endothelial cells (HUVEC) were treated with growing concentration of Compound 9a. 7 days later, the cells were subjected to an XTT assays as described in the method section. The results are the meaning of at least two separate experiments. Cell death was confirmed by trypan blue staining (not shown).
(§2) V—Toxicity tests: NNSC, GB5, TG6, HEK293, and HepaRG, HUVEC were seeded at 2000 cells/well in 96 wells plate in their respective culture mediums alone or containing growing concentration from 10 to 500 uM of Compounds 9a-b. Cultures were incubated 4 days and the cellular toxicity has been evaluated by XTT assays. Cell viability has been also assessed by counting living and dead cells with trypan blue staining.
XTT assays allows, through cell metabolism measurement, to determine a cytotoxic/cytostatic effects. Compounds 9a-b and 18a were tested for their eventual toxicity by XTT assays as described in the material and method section. At the working concentrations 10 to 25 uM, the compounds are not toxic for GSC (FIG. 4A). […]

[3] = tested on: human hepatocytes (HEPRG); test: XTT toxicity assay on human hepatocytes; format: cell-based
Protocol: as §1
HepaRG™ are terminally differentiated hepatic cells derived from a human hepatic progenitor cell that retains many characteristics of primary human hepatocytes. HepaRG were grown in William's E Medium supplemented with Tox medium supplement and glutamax.
as §2
XTT assays allows, through cell metabolism measurement, to determine a cytotoxic/cytostatic effects. […]

GB5 = test: XTT toxicity assay on GSC (GB5); format: cell-based
Protocol: as §1
II—XTT assay: TG6 and GB5 were seeded at 2000 cells/well in 96 wells plate in NS34+ alone or containing 10, 20, 25, 50 and 100 uM of Compounds 9a-b and 18a-b. Cultures were incubated 4 days and the cell proliferation was evaluated as indicated by the manufacturer.
as §2
XTT assays allows, through cell metabolism measurement, to determine a cytotoxic/cytostatic effects. Compounds 9a-b and 18a were tested for their eventual toxicity by XTT assays as described in the material and method section. At the working concentrations 10 to 25 uM, the compounds are not toxic for GSC (FIG. 4A). […] Compound 9a toxicity was further tested on normal neural stem cells (NNSC), human kidney (NHEK), human hepatocytes (HEPRG) and human endothelial cells (HUVEC). The compound is not toxic on NNSC, NHEK, HEPRG and HUVEC cells when used between 10 to 50 uM. At 100 uM and above, Compound 9a was toxic (FIG. 4).

[4] = tested on: OCT4, NANOG, SOX2 expression in GB5; test: OCT4, NANOG, SOX2 pluripotency marker immunofluorescence in GB5; format: cell-based, human; conditions: GB5, 20 uM
[5] = tested on: GSC expressing a luciferase gene (GB1-luc) brain tumors; test: Orthotopic GB1-luc xenograft, treatment of already formed tumors; format: in vivo, nude mice; conditions: 7.5 mg/kg three times a week, live imaging, vs DMSO; 11th week P value=0,017
Protocol: FIG. 3: Nude mice were orthotopically xenografted by luminescent patient derived GSC. (A-B) Two weeks following injections, mice were intraperitoneally injected with 10 mg/kg (n=4), 7.5 mg/kg (n=4) or 5 mg/kg (n=4) of Compound 9a or vehicle alone as control (ctl n=10). A) graphical representation of the average of tumor growth in the control group (n=10) and in each Compound 9a treated groups. B) Survival of the whole population of mice of the untreated and treated groups were compared using a log rank test according to Kaplan Meier method. (R command, see World Wide Web: biostatgv.sentiweb.fr/?module=tests/surv). The solid line represents the survival rate of control untreated mice. The dotted line represents the survival rate of mice treated by compound 9a. C) Mice treatment with compound 9a when the tumors were already formed. Tumor growth representation in mice, treated either with DMSO (control: -♦-) or Compound 9a (-▪-). Tumor growth was controlled every week by live imaging. The solid line represents the tumor growth in control untreated mice. The dotted line represents the tumor growth in mice treated by compound 9a.
To further determine whether Compound 9a might also alter tumor growth of tumors that were already formed before treatment, 50000 GSC expressing a luciferase gene (GB1-luc) for luminescent live imaging were injected in the brain of 12 nude mice. […]

NCCCCNCCCNC(=O)c1csc(-c2csc(CCNC(=O)CCc3cn(CC4OC(OC5C(O)C(N)CC(N)C5OC5OC(CN)C(O)C(O)C5N)C(O)C4OC4OC(CN)C(O)C(O)C4N)nn3)n2)n1 (stereo not drawn) [Compound 9a, N-(3-((4-Aminobutyl)amino)propyl)-2′-(2-(3-(1-methyl-1H-1,2,3-triazol-4-yl)propanamido)ethyl)-[2,4′-bithiazole]-4-carboxamide-neomycin]
adhesion and changes in GSC morphology [1]: induced adhesion and changes in GSC morphology | toxicity (XTT) ([2]; 100 uM and above): toxic | toxicity (XTT) ([2]; between 10 to 50 uM): not toxic | toxicity (XTT) ([3]; 100 uM and above): toxic | toxicity (XTT) ([3]; between 10 to 50 uM): not toxic | toxicity for GSC (XTT) (GB5; GB5, 50 uM and higher): relative toxicity | toxicity for GSC (XTT) (GB5; GB5, 10 to 25 uM): not toxic | OCT4, NANOG and SOX2 expression [4]: down regulation | growth of tumors already formed before treatment [5]: repressed tumor growth
